According to patent US4031226A, “N-[(1-piperidinyl)alkyl]arylcarboxamide derivatives” (Janssen Pharmaceutica N.V., priority 1976, dated 1977):
Like-named read-outs stand apart in the source and are kept apart here.

Tests used:
[1] = test system: apomorphine-induced vomiting; assay: block of apomorphine-induced vomiting in dogs (antiemetic activity); assay type: in vivo, beagle dogs; details: Canis lupus familiaris, sc, read-out: ED50 (dose which protects 50% of the animals from emesis)
Method: The method used is described previously by P. A. J. Janssen and C. J. E. Niemegeers in: Arzneim. -Forsch. (Drug Res), 9, 765-767 (1959).
The compounds listed below were administered subcutaneously to beagle dogs at different doses and the animals were challenged 1 hour thereafter with a standard dose of 0.31 mg/kg (subcutaneous) of apomorphine.
The tables below give the ED50 values of a number of the compounds under consideration. As used herein, the ED50 value represents the dose which protects 50% of the animals from emesis.

[2] = test system: apomorphine-induced phenomena: agitation and stereotypic chewing; assay: The apomorphine test in rats (anti-apomorphine activity); assay type: in vivo, male Wistar rats; details: Rattus norvegicus, sc, read-out: LED (lowest effective dose), anti-apomorphine activity in rats
Method: The compounds of formula (I) are potent psychotropic agents and as such they can be used in the treatment of metal disorders such as, for example, personality and psycho-affective disorders and schizophrenia. The psychotropic activity of the subject compounds (I) is strongly evidenced by the experimental data obtained in the apomorphine test in rats, a test which is indicative for central nervous system depressant activity. The test was carried out following the procedure described hereafter and the experimental data which were obtained are summarized in table V wherein the compound numbers refer to the corresponding structures in the Tables I to IV.
The apomorphine test in rats
The experimental animals used in this test were adult male Wistar rats (weight 240 ± 10 g.). After an overnight fast, the animals were treated subcutaneously (1ml/100 g) with an aqueous solution of the compound under investigation and put into isolated observation cages.

[3] = beagle dogs, challenged 1 hour thereafter with 0.31 mg/kg s.c. apomorphine
[4] = 30 min before 1.25 mg/kg i.v. apomorphine hydrochloride, observed over 1 hour, Fisher exact probability test

Compound | ED50 ([1]; 1 h) [mg/kg] | ED50 [1, 3] [mg/kg] | minimal effective dose [2] [mg/kg] | minimal effective dose [2, 4] [mg/kg]
O=C(NCCN1CCC2(CC1)C(=O)NCN2c1ccccc1)c1ccccc1 | 0.1 |  |  | 
COc1ccc(C(=O)NCCN2CCC3(CC2)C(=O)NCN3c2ccccc2)cc1 | 0.5 |  |  | 
O=C(NCCN1CCC2(CC1)C(=O)NCN2c1ccc(F)cc1)c1ccc(F)cc1[N+](=O)[O-] | 0.03 |  |  | 
O=C(NCCN1CCC2(CC1)C(=O)NCN2c1ccc(F)cc1)c1ccccc1[N+](=O)[O-] | 0.12 |  |  | 
O=C(NCCN1CCC2(CC1)C(=O)NCN2c1ccccc1)c1cccs1 | 0.45 |  |  | 
O=C(NCCN1CCC2(CC1)C(=O)NCN2c1ccccc1)c1cccc(Cl)c1 | 0.63 |  |  | 
O=C(NCCN1CCC2(CC1)C(=O)NCN2c1ccccc1)c1ccc(Cl)cc1 | 0.8 |  |  | 
O=C(NCCN1CCC2(CC1)C(=O)NCN2c1ccccc1)c1ccc(F)cc1[N+](=O)[O-] | 0.25 |  |  | 
O=C(NCCN1CCC(n2c(=O)[nH]c3ccccc32)CC1)c1ccccc1 |  | 0.2 |  | 
O=C(NCCN1CCC(n2c(=O)[nH]c3ccccc32)CC1)c1ccc(F)cc1 |  | 0.12 |  | 
Cc1ccccc1C(=O)NCCN1CCC(n2c(=O)[nH]c3ccccc32)CC1 |  | 0.25 |  | 
O=C(NCCN1CCC(n2c(=O)[nH]c3ccccc32)CC1)c1ccc(F)cc1[N+](=O)[O-] |  | 0.5 |  | 
Nc1ccccc1C(=O)NCCN1CCC(n2c(=O)[nH]c3cc(Cl)ccc32)CC1 |  | 0.45 |  | 
O=C(NCCN1CCC(n2c(=O)[nH]c3cc(Cl)ccc32)CC1)c1ccc(F)cc1[N+](=O)[O-] |  | 0.25 |  | 
N#CCCn1c(=O)n(C2CCN(CCNC(=O)c3ccc(F)cc3)CC2)c2ccccc21 |  | 0.5 |  | 
O=C(NCCN1CC=C(n2c(=O)[nH]c3ccccc32)CC1)c1ccc(F)cc1 |  | 0.25 |  | 
O=C(NCCN1CCC2(CC1)C(=O)NCN2c1ccccc1)c1ccc(F)cc1 [Compound 2] | 0.06 |  | 5 | 
O=C(NCCN1CCC2(CC1)C(=O)NCN2c1ccccc1)c1ccccc1Cl [Compound 3] | 0.06 |  | 0.31 | 
O=C(NCCN1CCC2(CC1)C(=O)NCN2c1ccccc1)c1ccccc1Br [Compound 4] | 0.25 |  | 2.5 | 
Cc1ccccc1C(=O)NCCN1CCC2(CC1)C(=O)NCN2c1ccccc1 [Compound 6] | 0.1 |  | 2.5 | 

Compound | ED50 ([1]; 1 h) [mg/kg] | ED50 [1, 3] [mg/kg] | minimal effective dose [2] [mg/kg] | minimal effective dose [2, 4] [mg/kg]
Cl.Nc1cc(F)ccc1C(=O)NCCN1CCC2(CC1)C(=O)NCN2c1ccccc1.O [Compound 7, 2-amino-4-fluoro-N-[2-(4-oxo-1-phenyl-1,3,8-triazaspiro[4,5]dec-8-yl)ethyl]benzamide hydrochloride hydrate] | 0.004 |  | 2.5 | 
O=C(NCCN1CCC2(CC1)C(=O)NCN2c1ccc(F)cc1)c1ccc(F)cc1 [Compound 8] | 0.015 |  | 10 | 
O=C(NCCN1CCC2(CC1)C(=O)NCN2c1ccc(F)cc1)c1ccc(F)cc1Cl [Compound 9] | 0.002 |  | 0.63 | 
O=C(NCCN1CCC2(CC1)C(=O)NCN2c1ccc(F)cc1)c1ccccc1O [Compound 11] | 0.2 |  | 10 | 
O=C(NCCN1CCC2(CC1)C(=O)NCN2c1ccc(F)cc1)c1ccccc1Cl [Compound 14] | 0.004 |  | 0.63 | 
O=C(NCCN1CCC2(CC1)C(=O)NCN2c1ccccc1)c1ccccc1F [Compound 16] | 0.25 |  | 1.25 | 
Cl.Nc1cc(F)ccc1C(=O)NCCN1CCC2(CC1)C(=O)NCN2c1ccc(F)cc1.O [Compound 20, 2-amino-4-fluoro-N-{2-[1-(4-fluorophenyl)-4-oxo-1,3,8-triazaspiro[4,5]dec-8-yl]ethyl}benzamide hydrochloride hydrate] | 0.002 |  | 5 | 
O=C(NCCN1CCC2(CC1)C(=O)NCN2c1ccccc1)c1ccc(F)cc1Cl [Compound 21] | 0.015 |  | 2.5 | 
Nc1ccccc1C(=O)NCCN1CCC2(CC1)C(=O)NCN2c1ccc(F)cc1 [Compound 23] | 0.008 |  | 2.5 | 
Cn1cccc1C(=O)NCCN1CCC2(CC1)C(=O)NCN2c1ccc(F)cc1 [Compound 24] | 0.25 |  | 10 | 
CC(=O)Nc1cc(F)ccc1C(=O)NCCN1CCC2(CC1)C(=O)NCN2c1ccc(F)cc1 [Compound 25] | 0.07 |  | 5 | 
O=C(NCCN1CCC(n2c(=O)[nH]c3ccccc32)CC1)c1ccccc1F [Compound 27] |  | 0.5 |  | 5
O=C(NCCN1CCC(n2c(=O)[nH]c3cc(Cl)ccc32)CC1)c1ccc(F)cc1 [Compound 31] | 0.08 |  | 5 | 
O=C(NCCN1CCC(n2c(=O)[nH]c3cc(Cl)ccc32)CC1)c1ccc(F)cc1Cl [Compound 32] |  | 0.03 |  | 1.25
Nc1cc(F)ccc1C(=O)NCCN1CCC(n2c(=O)[nH]c3ccccc32)CC1 [Compound 33] |  | 0.03 |  | 5
O=C(NCCN1CCC(n2c(=O)[nH]c3ccccc32)CC1)c1ccccc1Cl [Compound 34] |  | 1.5 |  | 5
Nc1ccccc1C(=O)NCCN1CCC(n2c(=O)[nH]c3ccccc32)CC1 [Compound 36, 2-amino-N-{2-[4-(2,3-dihydro-2-oxo-1H-benzimidazol-1-yl)-1-piperidinyl]ethyl}benzamide hemihydrate] |  | 0.1 |  | 
CC(=O)Nc1cc(F)ccc1C(=O)NCCN1CCC(n2c(=O)[nH]c3ccccc32)CC1 [Compound 37] |  | 0.04 |  | 10
CC(=O)Nc1cc(F)ccc1C(=O)NCCN1CCC(n2c(=O)[nH]c3cc(Cl)ccc32)CC1 [Compound 38] |  | 0.06 |  | 10
Nc1cc(F)ccc1C(=O)NCCN1CCC(O)(c2ccc(Cl)cc2)CC1 [Compound 40] | 0.7 |  | 5 | 
